According to patent US9610350B2, “Broad spectrum preservation blends” (Arch Personal Care Products, L.P., priority 2009, dated 2017):

How the values were obtained:
Format in all cases: cell-based
[1] = test system: mixed Klebsiella pneumoniae (ATCC 4352) and Enterobacter gergoviae (ATCC 33028); test: CTFA-type challenge test, mixed K. pneumoniae + E. gergoviae inoculum; details: Make-up Remover at pH 8.1 with 0.83% Benzyl Alcohol
Excerpt: (§1) CTFA Challenge Test Procedure: A challenge protocol similar to the CTFA method was followed to assess efficacy against a broad spectrum of microorganisms. The five separate inocula were: Staphylococcus aureus (ATCC 6538), mixed Pseudomonas aeruginosa (ATCC 9027) and Burkholderia cepacia (ATCC 25416), mixed Klebsiella pneumoniae (ATCC 4352) and Enterobacter gergoviae (ATCC 33028), Candida albicans (ATCC 10231), and a mixture of molds: Aspergillus niger (ATCC 16404) and 2 Penicillium sp. isolated from cosmetic products. Samples (35 grams each) were inoculated with approximately 2,000,000 bacteria per gram or 100,000 yeast cells or mold spores per gram. Individual challenges were prepared from overnight slants of bacteria and yeast cultures and from heavily sporulating mold cultures, 7 to 10 days old. All samples were plated quantitatively for viable organisms after 24 hours and weekly for up to 4 weeks. Samples inoculated with mold spores were also plated after 48 hours. Samples were re-challenged after four weeks (or sooner where appropriate) and the same sampling regime followed.
(§2) Recommended “Pass” Criteria: CTFA recommends at least a 99.9% reduction of vegetative bacteria and at least a 90% reduction of yeasts and molds within 7 days following each challenge with no increase in count thereafter.
(§3) The preservative concentrates were added to these formulations to give a final concentration of 1%. […]

[2] = test system: mixed Pseudomonas aeruginosa (ATCC 9027) and Burkholderia cepacia (ATCC 25416); test: CTFA-type challenge test, mixed P. aeruginosa + B. cepacia inoculum; details: Make-up Remover at pH 8.1 with 0.83% Benzyl Alcohol
Excerpt: as §1, §2, §3

[3] = test system: mixture of molds: Aspergillus niger (ATCC 16404) and 2 Penicillium sp.; test: CTFA-type challenge test, mixed mold inoculum; details: for Colony Forming Units per Gram (CFU/g), Mixed Molds: Make-up Remover at pH 8.1 with 0.83% Benzyl Alcohol
Excerpt: as §1, §2, §3
To determine if the unexpected activity of ECT 4 at high pH (8.1) can be attributed solely to the activity of benzyl alcohol the high pH make-up remover was preserved with 1% ECT4 and with 0.83% benzyl alcohol (equivalent amount found in 1% ECT4).

[4] = test system: Staphylococcus aureus (ATCC 6538); test: CTFA-type challenge test, S. aureus inoculum; details: Make-up Remover at pH 8.1 with 0.83% Benzyl Alcohol
[5] = test system: mixed Klebsiella pneumoniae (ATCC 4352) and Enterobacter gergoviae (ATCC 33028); test: CTFA-type challenge test, mixed K. pneumoniae + E. gergoviae inoculum; details: Make-up Remover at pH 8.1 with 0.83% Benzyl Alcohol; Challenge #2; 48 Hours
[6] = test system: mixed Pseudomonas aeruginosa (ATCC 9027) and Burkholderia cepacia (ATCC 25416); test: CTFA-type challenge test, mixed P. aeruginosa + B. cepacia inoculum; details: Make-up Remover at pH 8.1 with 0.83% Benzyl Alcohol; Challenge #2; 48 Hours
[7] = test system: Candida albicans (ATCC 10231); test: CTFA-type challenge test, C. albicans inoculum; details: Make-up Remover at pH 8.1 with 0.83% Benzyl Alcohol
[8] = High pH Make-up Remover (pH 8.1), 0.83% benzyl alcohol

OCc1ccccc1 [benzyl alcohol]
3.6 × 10^3 CFU/g: Colony Forming Units per Gram (CFU/g), Mixed Molds ([3]; Challenge #2, 14 Days)
1.6 × 10^2 CFU/g: Colony Forming Units per Gram (CFU/g), C. albicans ([7]; Challenge #1, 7 Days)
5.1 × 10^3 CFU/g: Colony Forming Units per Gram (CFU/g), Mixed Molds ([3]; Challenge #1, 28 Days)
9.0 × 10^3 CFU/g: Colony Forming Units per Gram (CFU/g), Mixed Molds ([3]; Challenge #2, 21 Days)
1.2 × 10^5 CFU/g: Colony Forming Units per Gram (CFU/g), Mixed Molds ([3]; Challenge #1, 48 Hours)
1.5 × 10^4 CFU/g: Colony Forming Units per Gram (CFU/g), Mixed Molds ([3]; Challenge #1, 21 Days)
<1.0 × 10^2 CFU/g: Colony Forming Units per Gram (CFU/g), C. albicans ([7]; Challenge #2, 48 Hours)
3.0 × 10^4 CFU/g: Colony Forming Units per Gram (CFU/g), Mixed Molds ([3]; Challenge #1, 7 Days)
2.1 × 10^5 CFU/g: Colony Forming Units per Gram (CFU/g), Mixed Molds ([3]; Challenge #1, 24 Hours)
8.0 × 10^4 CFU/g: Colony Forming Units per Gram (CFU/g), Mixed Molds ([3]; Challenge #1, 14 Days)
4.0 × 10^2 CFU/g: Colony Forming Units per Gram (CFU/g), Mixed Molds ([3]; Challenge #2, 28 Days)
not sufficiently efficacious: Efficacy against the mixed mold challenge [3, 8]
<10 CFU/g: Colony Forming Units per Gram (CFU/g), K. pneumoniae + E. gergoviae ([1]; Challenge #1, 7 Days) | Colony Forming Units per Gram (CFU/g), K. pneumoniae + E. gergoviae ([1]; Challenge #1, 14 Days) | Colony Forming Units per Gram (CFU/g), K. pneumoniae + E. gergoviae ([1]; Challenge #1, 21 Days) | Colony Forming Units per Gram (CFU/g), K. pneumoniae + E. gergoviae ([1]; Challenge #1, 24 Hours) | Colony Forming Units per Gram (CFU/g), K. pneumoniae + E. gergoviae ([1]; Challenge #1, 28 Days) | Colony Forming Units per Gram (CFU/g), K. pneumoniae + E. gergoviae ([1]; Challenge #2, 7 Days) | Colony Forming Units per Gram (CFU/g), K. pneumoniae + E. gergoviae ([1]; Challenge #2, 14 Days) | Colony Forming Units per Gram (CFU/g), K. pneumoniae + E. gergoviae ([1]; Challenge #2, 21 Days) | Colony Forming Units per Gram (CFU/g), K. pneumoniae + E. gergoviae ([1]; Challenge #2, 28 Days) | Colony Forming Units per Gram (CFU/g), P. aeruginosa + B. cepacia ([2]; Challenge #1, 7 Days) | Colony Forming Units per Gram (CFU/g), P. aeruginosa + B. cepacia ([2]; Challenge #1, 14 Days) | Colony Forming Units per Gram (CFU/g), P. aeruginosa + B. cepacia ([2]; Challenge #1, 21 Days) | Colony Forming Units per Gram (CFU/g), P. aeruginosa + B. cepacia ([2]; Challenge #1, 24 Hours) | Colony Forming Units per Gram (CFU/g), P. aeruginosa + B. cepacia ([2]; Challenge #1, 28 Days) | Colony Forming Units per Gram (CFU/g), P. aeruginosa + B. cepacia ([2]; Challenge #2, 7 Days) | Colony Forming Units per Gram (CFU/g), P. aeruginosa + B. cepacia ([2]; Challenge #2, 14 Days) | Colony Forming Units per Gram (CFU/g), P. aeruginosa + B. cepacia ([2]; Challenge #2, 21 Days) | Colony Forming Units per Gram (CFU/g), P. aeruginosa + B. cepacia ([2]; Challenge #2, 28 Days) | Colony Forming Units per Gram (CFU/g), S. aureus ([4]; Challenge #1, 7 Days) | Colony Forming Units per Gram (CFU/g), S. aureus ([4]; Challenge #1, 14 Days) | Colony Forming Units per Gram (CFU/g), S. aureus ([4]; Challenge #1, 21 Days) | Colony Forming Units per Gram (CFU/g), S. aureus ([4]; Challenge #1, 24 Hours) | Colony Forming Units per Gram (CFU/g), S. aureus ([4]; Challenge #1, 28 Days) | Colony Forming Units per Gram (CFU/g), S. aureus ([4]; Challenge #2, 7 Days) | Colony Forming Units per Gram (CFU/g), S. aureus ([4]; Challenge #2, 14 Days) | Colony Forming Units per Gram (CFU/g), S. aureus ([4]; Challenge #2, 21 Days) | Colony Forming Units per Gram (CFU/g), S. aureus ([4]; Challenge #2, 28 Days) | Colony Forming Units per Gram (CFU/g), S. aureus ([4]; Challenge #2, 48 Hours) | Colony Forming Units per Gram (CFU/g), K. pneumoniae + E. gergoviae [5] | Colony Forming Units per Gram (CFU/g), P. aeruginosa + B. cepacia [6] | Colony Forming Units per Gram (CFU/g), C. albicans ([7]; Challenge #1, 14 Days) | Colony Forming Units per Gram (CFU/g), C. albicans ([7]; Challenge #1, 21 Days) | Colony Forming Units per Gram (CFU/g), C. albicans ([7]; Challenge #1, 28 Days) | Colony Forming Units per Gram (CFU/g), C. albicans ([7]; Challenge #2, 7 Days) | Colony Forming Units per Gram (CFU/g), C. albicans ([7]; Challenge #2, 14 Days) | Colony Forming Units per Gram (CFU/g), C. albicans ([7]; Challenge #2, 21 Days) | Colony Forming Units per Gram (CFU/g), C. albicans ([7]; Challenge #2, 28 Days)
did not meet CTFA recommendations: CTFA recommendations for a minimum of 90% mold reduction in 7 days [3, 8]
3.4 × 10^3 CFU/g: Colony Forming Units per Gram (CFU/g), Mixed Molds ([3]; Challenge #2, 7 Days)
3.1 × 10^4 CFU/g: Colony Forming Units per Gram (CFU/g), C. albicans ([7]; Challenge #1, 24 Hours)
3.8 × 10^3 CFU/g: Colony Forming Units per Gram (CFU/g), Mixed Molds ([3]; Challenge #2, 48 Hours)
